Earlier results, collected in patent US20210401968A1 (priority 2018, published 2021).
Like-named read-outs stand apart in the source and are kept apart here.

Columns and labels:
[1] = target: T1, progesterone receptor-based transactivator (Homo sapiens, UniProt P06401); conditions: rats
T1 construct: host or cells: rats (host animal of the cited study)

[2] = tested on: luciferase target gene

T1 sequence (P06401 640-891, added parts left off): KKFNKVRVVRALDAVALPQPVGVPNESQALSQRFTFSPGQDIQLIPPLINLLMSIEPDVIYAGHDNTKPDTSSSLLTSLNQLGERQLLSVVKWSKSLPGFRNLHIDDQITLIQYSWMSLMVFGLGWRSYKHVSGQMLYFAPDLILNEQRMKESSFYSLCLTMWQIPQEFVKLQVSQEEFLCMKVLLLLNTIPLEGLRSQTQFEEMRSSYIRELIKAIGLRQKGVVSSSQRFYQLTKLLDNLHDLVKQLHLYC

In the case of CC#C[C@]1(O)CC[C@H]2[C@@H]3CCC4=CC(=O)CCC4=C3[C@@H](c3ccc(N(C)C)cc3)C[C@@]21C [mifepristone], the “amount giving an effective concentration” value ([1]; i.p.) is listed as 5 µg/kg, the “amount giving an effective concentration” value ([1]; orally) is listed as “about 10 μg/kg” and the “duration of sustained target gene expression after a single heat treatment” value [2] is listed as “at least 6 days”. For the same compound, the “target gene expression after heat treatment” value [2] was “resulted in activation of target gene expression”.
